Data published in article PMC3833348 (MedChemComm, 2013).

Tests used:
P-gp [1] = conditions: cited from earlier work
P-gp [2] = molecular target: T1, P-gp (Homo sapiens, UniProt P08183); experiment: Substrate accumulation assays in MCF-7/DX1 cells; type: cell-based
[3] = Solubility in aqueous buffer; type: physicochemical; conditions: as compared to Aba-C10
P-gp [4] = molecular target: T1, P-gp; experiment: Inhibition of P-gp-mediated efflux of NBD-Aba in hCMEC/D3 cells; type: cell-based

T1 sequence (P08183 whole entry): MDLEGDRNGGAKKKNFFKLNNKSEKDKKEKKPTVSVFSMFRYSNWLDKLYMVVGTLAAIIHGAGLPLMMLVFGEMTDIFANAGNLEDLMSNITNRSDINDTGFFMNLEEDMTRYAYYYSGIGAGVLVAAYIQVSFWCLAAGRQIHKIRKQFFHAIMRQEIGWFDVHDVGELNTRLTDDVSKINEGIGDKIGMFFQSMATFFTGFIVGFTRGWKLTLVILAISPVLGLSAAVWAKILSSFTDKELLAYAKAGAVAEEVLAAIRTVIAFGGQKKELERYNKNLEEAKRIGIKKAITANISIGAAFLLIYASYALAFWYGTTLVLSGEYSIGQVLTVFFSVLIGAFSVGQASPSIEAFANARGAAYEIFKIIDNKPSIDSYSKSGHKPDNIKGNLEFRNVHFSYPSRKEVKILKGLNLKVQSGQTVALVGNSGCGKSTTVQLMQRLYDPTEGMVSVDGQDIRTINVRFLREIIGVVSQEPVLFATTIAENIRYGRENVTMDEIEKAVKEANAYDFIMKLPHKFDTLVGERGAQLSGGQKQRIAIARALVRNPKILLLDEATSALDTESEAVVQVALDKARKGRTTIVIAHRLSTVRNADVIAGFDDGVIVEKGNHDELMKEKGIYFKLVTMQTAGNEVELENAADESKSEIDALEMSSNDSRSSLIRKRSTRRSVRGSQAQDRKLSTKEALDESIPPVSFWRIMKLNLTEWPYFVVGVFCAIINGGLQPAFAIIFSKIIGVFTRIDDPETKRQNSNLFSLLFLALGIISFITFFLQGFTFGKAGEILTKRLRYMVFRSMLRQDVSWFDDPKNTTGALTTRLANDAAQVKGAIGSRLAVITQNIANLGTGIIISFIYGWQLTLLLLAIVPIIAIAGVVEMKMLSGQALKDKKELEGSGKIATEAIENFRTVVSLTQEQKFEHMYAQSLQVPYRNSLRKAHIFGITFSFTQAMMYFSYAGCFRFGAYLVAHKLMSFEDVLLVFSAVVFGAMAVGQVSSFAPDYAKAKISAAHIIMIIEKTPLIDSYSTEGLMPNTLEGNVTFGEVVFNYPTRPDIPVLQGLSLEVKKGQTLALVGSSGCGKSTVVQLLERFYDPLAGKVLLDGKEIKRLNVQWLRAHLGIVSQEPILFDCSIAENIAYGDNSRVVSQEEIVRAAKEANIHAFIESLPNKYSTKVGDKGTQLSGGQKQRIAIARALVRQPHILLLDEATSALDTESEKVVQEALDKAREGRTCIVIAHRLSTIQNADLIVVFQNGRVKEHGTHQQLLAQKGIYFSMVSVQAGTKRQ

For `Nc1nc(NC2CC2)c2ncn([C@H]3C=C[C@@H](CO)C3)c2n1` [abacavir, reference compound], the “Fold increase in brain levels, P-gp-null mice versus wild-type mice” value (P-gp [1]) is listed as 20 fold and the “Effect on transport in MCF-7/DX1 cells” value (P-gp [2]; up to a concentration of 100 µM, data not shown) is listed as “no effect on transport”.

For `Nc1nc(NC2CC2)c2ncn([C@H]3C=C[C@@H](COC(=O)CCCCCCCCC(=O)OC[C@@H]4C=C[C@H](n5cnc6c(NC7CC7)nc(N)nc65)C4)C3)c2n1` [Aba-C8], the “Solubility in aqueous buffer” value [3] was “more favorable solubility”, the “Fold decrease of potency in MCF-7/DX1 cells versus 12D7-MDR” value (P-gp [2]; NBD-Aba as substrate) was roughly 6 fold and the “Fold decrease of potency in MCF-7/DX1 cells versus hCMEC/D3” value (P-gp [2]; NBD-Aba as substrate) was “about 3 fold”. The “Inhibition of efflux of each of the substrates in MCF-7/DX1 cells” value (P-gp [2]; substrates BODIPY-prazosin, doxorubicin, [3H]-daunomycin and NBD-Aba) was “effectively inhibit efflux”.

With `Nc1nc(NC2CC2)c2ncn([C@H]3C=C[C@@H](COC(=O)CCCCCCCCCCC(=O)OC[C@@H]4C=C[C@H](n5cnc6c(NC7CC7)nc(N)nc65)C4)C3)c2n1` [Aba-C10] the “Fold more potent than monomeric abacavir” value (P-gp [4]) was “greater than 500 fold”.
